Data reported in article PMC4897788, “Design, biological evaluation and 3D QSAR studies of novel dioxin-containing pyrazoline derivatives with thiourea skeleton as selective HER-2 inhibitors” (Scientific Reports, 2016).

Assays:
HER-2 = HER-2 (Homo sapiens, UniProt P04626); assay: HER-2 autophosphorylation kinase assay (DELFIA/time-resolved fluorometry); conditions: for SI EGFR/HER-2: selectivity index, IC50 EGFR/IC50 HER-2
Method: (§2) Both EGFR and HER-2 kinase assays were set up to assess the level of autophosphorylation based on DELFIA/Time-Resolved Fluorometry. […] Then, 10 μL of 5× buffer (containing 20 mM HEPES, 2 mM MnCl2, 100 μM Na3VO4, and 1 mM DTT) and 20 μL of 0.1 mM ATP-50 mM MgCl2 was added for 1 h. Positive and negative controls were included in each plate by incubation of enzyme with or without ATP-MgCl2. At the end of incubation, liquid was aspirated and plates were washed three times with wash buffer. A 75 μL (400 ng) sample of europium-labeled anti-phosphotyrosine antibody was added to each well for another 1 h of incubation. […] The IC50 was obtained from curves of percentage inhibition with eight concentrations of compound. As the contaminants in the enzyme preparation are fairly low, the majority of the signal detected by the anti-phosphotyrosine antibody is from EGFR or HER-2. The experiment was performed for three independent times and in triplicate each time.

FAK = target: T1, FAK (Homo sapiens, UniProt Q05397); assay: FAK inhibitory assay (Kinase-Glo); format: biochemical
T1 construct: human-recombinant full-length FAK
T1 sequence (Q05397 whole entry): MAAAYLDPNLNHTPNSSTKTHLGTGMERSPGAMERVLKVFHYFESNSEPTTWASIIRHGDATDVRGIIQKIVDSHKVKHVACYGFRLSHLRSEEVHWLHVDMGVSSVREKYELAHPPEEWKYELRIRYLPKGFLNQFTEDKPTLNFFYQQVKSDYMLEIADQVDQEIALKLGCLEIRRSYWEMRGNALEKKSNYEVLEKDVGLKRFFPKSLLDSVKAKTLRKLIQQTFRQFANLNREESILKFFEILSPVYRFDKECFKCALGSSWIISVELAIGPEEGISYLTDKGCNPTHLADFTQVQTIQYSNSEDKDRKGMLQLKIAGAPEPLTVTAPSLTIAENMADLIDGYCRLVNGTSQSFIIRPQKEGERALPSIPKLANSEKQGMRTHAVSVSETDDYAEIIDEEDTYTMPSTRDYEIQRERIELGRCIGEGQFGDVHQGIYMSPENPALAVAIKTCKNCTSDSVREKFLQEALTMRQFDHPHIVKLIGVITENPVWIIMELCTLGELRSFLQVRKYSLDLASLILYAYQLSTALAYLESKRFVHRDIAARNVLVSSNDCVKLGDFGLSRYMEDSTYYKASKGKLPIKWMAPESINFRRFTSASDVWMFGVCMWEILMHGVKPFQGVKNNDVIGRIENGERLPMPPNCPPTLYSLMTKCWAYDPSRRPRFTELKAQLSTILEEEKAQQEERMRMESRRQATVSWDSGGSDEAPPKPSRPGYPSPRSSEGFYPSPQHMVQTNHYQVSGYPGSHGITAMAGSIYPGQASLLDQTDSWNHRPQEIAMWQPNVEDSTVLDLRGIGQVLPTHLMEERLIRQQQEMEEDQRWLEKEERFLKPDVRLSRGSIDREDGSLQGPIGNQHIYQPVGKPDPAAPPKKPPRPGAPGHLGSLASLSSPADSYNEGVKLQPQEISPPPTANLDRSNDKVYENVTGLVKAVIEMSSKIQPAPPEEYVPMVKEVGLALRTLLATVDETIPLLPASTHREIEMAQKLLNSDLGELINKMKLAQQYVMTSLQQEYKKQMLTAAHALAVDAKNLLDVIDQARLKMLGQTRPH
Method: Selected compounds were tested against FAK. In a typical study, human-recombinant full-length FAK was incubated in kinase buffer containing ATP and the substrate for 4 h at room temperature with or without the presence of the corresponding coumpounds. The final concentration of drug as 100, 30, 10, 3 μg/mL. The remaining ATP in solution was then quantified utilizing the Kinase-Glo-luminescence kit (Promega).

human erythrocytes = assay: Hemolysis test; format: cell-based; conditions: lytic concentration 30%
Method: Hemolytic activity was assayed using fresh capillary human blood. Erythrocytes were collected by centrifuging the blood three times in chilled phosphate buffered saline (PBS at 4 °C) at 1000 × g for 10 min. The final pellet was resuspended in PBS to give a 2% w/v solution. Using a microtitre plate, 100 μL of the erythrocyte solution was added to dextran, PLL, stearyl-PLL or stearyl-PLL+ LDL (1–1000/μg/mL) in a volume of […]. Samples were then incubated for 3 h and the microtitre plate was centrifuged then at 1000 × g for 10 min and the supernatants (100 μL) transferred into a new microtitre plate. Hemoglobin release was determined spectrophotometrically using a microtitre plate reader (absorbance at 550 nm). Results were expressed as the amount of released hemoglobin induced by the compounds as a percentage of the total. Hemolysis test was tested according to the guide of biological evaluation of medical device (SFDA, China).

HER-3 = target: T2, HER-3 (Homo sapiens, UniProt P21860); assay: HER-3 inhibitory assay; format: biochemical
T2 construct: HER-3 cytoplasmic domain (HER-3-CD, amino acids 665–1339); His6 (N); made in house
T2 sequence (P21860 665-1339): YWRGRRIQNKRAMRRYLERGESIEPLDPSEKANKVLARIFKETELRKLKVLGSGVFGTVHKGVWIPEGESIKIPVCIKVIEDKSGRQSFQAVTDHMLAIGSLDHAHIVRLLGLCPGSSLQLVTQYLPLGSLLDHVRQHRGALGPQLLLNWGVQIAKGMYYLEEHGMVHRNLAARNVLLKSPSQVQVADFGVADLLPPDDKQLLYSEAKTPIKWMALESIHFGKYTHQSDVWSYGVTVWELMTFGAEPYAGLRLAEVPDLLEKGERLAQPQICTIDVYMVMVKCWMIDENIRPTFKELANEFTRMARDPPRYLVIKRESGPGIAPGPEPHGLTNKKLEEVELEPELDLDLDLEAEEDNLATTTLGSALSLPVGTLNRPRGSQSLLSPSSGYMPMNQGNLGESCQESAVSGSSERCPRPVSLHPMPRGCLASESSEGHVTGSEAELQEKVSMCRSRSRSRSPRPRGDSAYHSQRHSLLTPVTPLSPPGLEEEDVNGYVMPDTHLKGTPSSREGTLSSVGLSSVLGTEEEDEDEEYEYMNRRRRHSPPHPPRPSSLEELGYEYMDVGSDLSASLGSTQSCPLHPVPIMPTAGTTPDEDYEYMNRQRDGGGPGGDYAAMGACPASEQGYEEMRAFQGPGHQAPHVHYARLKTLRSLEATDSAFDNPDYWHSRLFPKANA
Method: A sequence that encodes (His)6 was located at the 5′ upstream to the HER-2 and EGFR sequences. Sf-9 cells were infected for 3 days for protein expression. Sf-9 cell pellets were solubilized at 0 °C in a buffer at pH 7.4 containing 50 mM HEPES, 10 mM NaCl, 1% Triton, 10 μM ammonium molybdate, 100 μM sodium vanadate, 10 μg/mL aprotinin, 10 μg/mL leupeptin, 10 μg/mL pepstatin, and 16 μg/mL benzamidine, HCl for 20 min followed by 20 min centrifugation. Crude extract supernatant was passed through an equilibrated Ni–NTA superflow packed column and washed with 10 mM and then 100 mM imidazole to remove nonspecifically bound material. Histidine-tagged proteins were eluted with 250 and 500 mM imidazole and dialyzed against 50 mM NaCl, 20 mM HEPES, 10% glycerol and 1 μg/mL each of aprotinin, leupeptin, and pepstatin for 2 h. The entire purification procedure was performed at 4 °C or on ice.
A 1.8 Kb cDNA encoded for human HER-3 cytoplasmic domain (HER-3-CD, amino acids 665–1339) was applied to perform the experiment using the same method as EGFR/HER-2.

VEGFR-2 = target: T3, VEGFR-2 (Homo sapiens, UniProt P35968); assay: VEGFR-2 inhibitory assay; format: biochemical
T3 construct: either the phosphorylated or nonphosphorylated form of the VEGFR-2 kinase domain
T3 sequence (P35968 834-1162 limits assumed, species assumed): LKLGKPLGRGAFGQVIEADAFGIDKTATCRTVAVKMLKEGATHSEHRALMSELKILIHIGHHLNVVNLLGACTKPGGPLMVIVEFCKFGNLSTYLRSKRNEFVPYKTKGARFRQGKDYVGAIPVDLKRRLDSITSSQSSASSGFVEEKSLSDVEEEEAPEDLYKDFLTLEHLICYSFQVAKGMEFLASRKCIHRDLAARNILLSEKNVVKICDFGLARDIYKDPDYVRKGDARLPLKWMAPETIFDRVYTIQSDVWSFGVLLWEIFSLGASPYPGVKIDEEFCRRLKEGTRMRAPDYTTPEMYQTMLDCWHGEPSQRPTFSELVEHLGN
Method: In a 96-well plate, 5 nM/L of either the phosphorylated or nonphosphorylated form of the VEGFR-2 kinase domain was incubated with selected compounds (10-point titration ranging from 4 μM to 0.1 μM), 1 μM/L gastrin substrate, 20 mM/L Tris-HCl, pH 7.5, 10 mM/L MgCl2, 100 mM/L NaCl, 1.5 mM/L EGTA, 1 mM/L DTT, 0.2 mM/L sodium orthovanadate, and 20 μg/mL BSA for 30 min at 25 °C. ATP was added at a final concentration of 11.8 μM and incubated for 60 min at room temperature. Eu-labeled antiphosphotyrosine pT66 antibody (Perkin- Elmer) was then used for detection. The fluorescence at 665 nM was measured with a Wallac Victor plate reader using a time delay of 50 μs. The experiment was performed for three independent times and in triplicate each time.

[1] = test system: MCF-7 human breast cancer cell line; assay: Anti-proliferation assay (MTT), MCF-7; format: cell-based; conditions: MCF7, 24 h
Method: (§1) MCF-7 human breast cancer cells was cultured in DMEM/10% fetal bovine serum, in 5% CO2 water saturated atmosphere at 37 °C. MDA-MB-453 human breast cancer cells was cultured in L-15 medium in 100% air at 37 °C. Cell suspensions (10000/mL) were prepared and 100 μL/well dispensed into 96-well plates (Costar) giving 1000 cells/well. The plates were returned to the incubator for 24 h to allow the cells to reattach. These compounds were initially prepared at 20 mM in DMSO. Aliquots (200 μL) were diluted into 20 mL culture medium giving 200 μM, and 10 serial dilutions of 3× prepared. Aliquots (100 μL) of each dilution were added to the wells, giving doses ranging from 100 μM to 0.005 μM. After a further incubated at 37 °C for 24 h in a humidified atmosphere with 5% CO2, the cell viability was assessed by the conventional 3-(4,5-dimethylthiazol-2-yl)-2,5-diphenyltetrazolium bromide (MTT) reduction assay and carried out strictly according to the manufacturer instructions (Sigma). The absorbance at 590 nm was recorded using LX300 Epson Diagnostic micro-plate reader. Then GI50 was calculated using SPSS 13.0 software.

[2] = test system: MDA-MB-453 human breast cancer cell line; assay: Anti-proliferation assay (MTT), MDA-MB-453; format: cell-based; conditions: 24 h
Method: as §1

EGFR = EGFR (Homo sapiens, UniProt P00533); assay: EGFR autophosphorylation kinase assay (DELFIA/time-resolved fluorometry)
Chain of EGFR (P00533 669-1210): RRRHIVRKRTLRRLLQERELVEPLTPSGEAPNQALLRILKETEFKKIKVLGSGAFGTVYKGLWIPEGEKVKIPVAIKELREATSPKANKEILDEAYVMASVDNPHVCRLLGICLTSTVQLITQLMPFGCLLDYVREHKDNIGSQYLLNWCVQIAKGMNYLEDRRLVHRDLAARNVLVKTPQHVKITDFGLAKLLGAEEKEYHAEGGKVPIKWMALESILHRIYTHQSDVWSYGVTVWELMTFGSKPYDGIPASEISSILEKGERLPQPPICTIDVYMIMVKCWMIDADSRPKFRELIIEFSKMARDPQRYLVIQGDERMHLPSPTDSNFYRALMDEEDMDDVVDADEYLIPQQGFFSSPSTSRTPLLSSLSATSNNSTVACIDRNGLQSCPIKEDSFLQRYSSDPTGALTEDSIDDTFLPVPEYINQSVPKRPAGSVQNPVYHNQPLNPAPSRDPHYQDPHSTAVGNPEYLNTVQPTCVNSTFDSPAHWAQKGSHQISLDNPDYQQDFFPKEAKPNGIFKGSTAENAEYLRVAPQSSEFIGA
Method: as §2

[3] = Cytotoxicity test (MTT), NIH-3T3; format: cell-based; conditions: mouse, NIH-3T3 mouse embryonic fibroblast cells, NIH3T3
Method: The cytotoxic activity in vitro was measured against mouse fibroblast NIH-3T3 cell using the MTT assay. Cells were cultured in a 96-well plate at a density of 5 × 10^5 cells and different concentrations of compounds were respectively added to each well. The incubation was permitted at 37 °C, 5% CO2 atmosphere for 24 h before the cytotoxicity assessments. 20 μL MTT reagent (4 mg/mL) was added per well 4 h before the end of the incubation. Four hours later, the plate was centrifuged at 1200 rcf for 5 min and the supernatants were removed, each well was added with 200 μL DMSO. The absorbance was measured at a wavelength of 490 nm (OD 490 nm) on an ELISA microplate reader. Three replicate wells were used for each concentration and each assay was measured three times, after which the average of IC50 was calculated. The cytotoxicity of each compound was expressed as the concentration of compound that reduced cell viability to 50% (IC50).

Chain of HER-2 (P04626 676-1245): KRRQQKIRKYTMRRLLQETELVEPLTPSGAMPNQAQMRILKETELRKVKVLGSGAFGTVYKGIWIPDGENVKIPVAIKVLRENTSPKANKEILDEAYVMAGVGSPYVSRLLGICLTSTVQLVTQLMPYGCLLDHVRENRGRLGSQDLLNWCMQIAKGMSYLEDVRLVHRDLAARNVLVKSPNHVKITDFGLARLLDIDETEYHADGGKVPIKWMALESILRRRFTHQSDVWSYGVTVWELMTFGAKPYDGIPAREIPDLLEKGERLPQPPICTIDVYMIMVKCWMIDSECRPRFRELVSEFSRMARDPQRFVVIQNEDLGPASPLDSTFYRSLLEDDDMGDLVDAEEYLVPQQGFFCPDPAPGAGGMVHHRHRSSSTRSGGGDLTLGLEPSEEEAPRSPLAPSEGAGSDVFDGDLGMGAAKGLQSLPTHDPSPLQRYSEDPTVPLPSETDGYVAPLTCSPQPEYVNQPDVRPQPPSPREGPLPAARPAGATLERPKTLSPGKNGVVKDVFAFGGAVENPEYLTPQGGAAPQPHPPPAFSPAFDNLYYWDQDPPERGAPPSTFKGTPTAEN

Compound | IC50 (HER-2) | SI EGFR/HER-2 (HER-2) | IC50 (FAK) | Hemolysis LC30 (human erythrocytes) | IC50 (HER-3) | IC50 (VEGFR-2) | GI50 [1] | GI50 [2] | IC50 (EGFR) | GI50 at 24 h [3]
NC(=S)N1N=C(c2ccc3c(c2)OCCO3)CC1c1ccc(C(F)(F)F)cc1 (centres unmarked) [Compound C17, 3-(2,3-dihydrobenzo[b][1,4]dioxin-6-yl)-5-(4-(trifluoromethyl)phenyl)-4,5-dihydro-1H-pyrazole-1-carbothioamide] | 210 ± 20 nM | 379.6 | 30.1 ± 2.76 µM | >10 mg/mL | 8.45 ± 0.78 µM | 5.16 ± 0.5 µM | 96.4 ± 9.22 µM | 550 ± 20 nM | 79.7 ± 7.01 µM | 185 ± 3.15 µM
CSc1ccc(C2CC(c3ccc4c(c3)OCCO4)=NN2C(N)=S)cc1 (centres unmarked) [Compound C15, 3-(2,3-dihydrobenzo[b][1,4]dioxin-6-yl)-5-(4-(methylthio)phenyl)-4,5-dihydro-1H-pyrazole-1-carbothioamide] | 290 ± 20 nM | 94.8 | 40.3 ± 3.88 µM | >10 mg/mL | 17.9 ± 1.48 µM | 8.75 ± 0.77 µM | 12.1 ± 1.17 µM | 950 ± 80 nM | 27.5 ± 2.46 µM | 154 ± 1.75 µM
Cc1ccc(C2CC(c3ccc4c(c3)OCCO4)=NN2C(N)=S)cc1 (centres unmarked) [Compound C9, 3-(2,3-dihydrobenzo[b][1,4]dioxin-6-yl)-5-(p-tolyl)-4,5-dihydro-1H-pyrazole-1-carbothioamide] | 370 ± 30 nM | 176.1 | 36.1 ± 3.21 µM | >10 mg/mL | 6.32 ± 0.58 µM | 11.5 ± 1.07 µM | 56.2 ± 5.41 µM | 1380 ± 120 nM | 65.2 ± 5.88 µM | 199.1 ± 1.6 µM
COc1ccc(C2CC(c3ccc4c(c3)OCCO4)=NN2C(N)=S)cc1 (centres unmarked) [Compound C10, 3-(2,3-dihydrobenzo[b][1,4]dioxin-6-yl)-5-(4-methoxyphenyl)-4,5-dihydro-1H-pyrazole-1-carbothioamide] | 80 ± 6 nM | 474.4 | 64 ± 5.95 µM | >10 mg/mL | 10.7 ± 0.96 µM | 6.91 ± 0.64 µM | 18.2 ± 1.71 µM | 250 ± 20 nM | 37.9 ± 3.75 µM | 204 ± 3.05 µM
NC(=S)N1N=C(c2ccc3c(c2)OCCO3)CC1c1ccc(Br)cc1 (centres unmarked) [Compound C13, 5-(4-bromophenyl)-3-(2,3-dihydrobenzo[b][1,4]dioxin-6-yl)-4,5-dihydro-1H-pyrazole-1-carbothioamide] | 800 ± 70 nM | 102.5 | 36.5 ± 3.42 µM | >10 mg/mL | 2.46 ± 0.23 µM | 25.8 ± 2.41 µM | 123 ± 11.2 µM | 3240 ± 300 nM | 82 ± 7.84 µM | 148 ± 2.02 µM
